Experimental data reported in patent publication US11926576B1, “4,4′-naphthalene-1,5-diylbis(diazene-2,1-diyl)dibenzene-1,2-diol as an antioxidant compound” (KING FAISAL UNIVERSITY, priority 2023, dated 2024).

Test: DPPH radical scavenging antioxidant test
Type: biochemical
Settings: 517 nm; for Inhibition (radical scavenging inhibition): compound 3 μM in ethanol, 0.2 mL DPPH (0.75 mM), 30 min incubation in the dark
Method: The antioxidant properties of the 4,4′-naphthalene-1,5-diylbis(diazene-2,1-diyl)dibenzene-1,2-diol were studied by adding 0.2 mL DPPH (0.75 mM)) to compound 4,4′-naphthalene-1,5-diylbis(diazene-2,1-diyl)dibenzene-1,2-diol (III) (3 μM) in ethanol. After 30 min of incubation in the dark, the absorbance was read against a blank at 517 nm. Ascorbic acid (vitamin C) was used as standard antioxidants (positive control). A blank sample was prepared by 0.2 ml of DPPH in 3 ml ethanol. A negative control sample was run using ethanol instead of the sample. The radical scavenging inhibition was calculated using the following equation: […]

Row | Structure (SMILES) | antioxidant potential (DPPH) compared to vitamin C (DPPH in vitro test, vitamin C as positive control) | Inhibition (radical scavenging inhibition)
1 | Oc1ccc(/N=N/c2cccc3c(/N=N/c4ccc(O)c(O)c4)cccc23)cc1O [Product III, 4,4′-naphthalene-1,5-diylbis(diazene-2,1-diyl)dibenzene-1,2-diol] | high potential as an antioxidant compared to vitamin C | 50%
2 | O=C1O[C@H]([C@@H](O)CO)C(O)=C1O [vit c, Ascorbic acid, reference compound] | – | 74%
